The source of these data is patent US20070142462A1, “Method of Treating Cancer” (The University of Utah, priority 2000, published 2007).

Molecules are shown by their SMILES.

Holding throughout (assay type): cell-based, human
The subject of assay [1] is Melanoma M1585 cells. Put plainly: MTT proliferation assay, M1585 melanoma. The note with it: Homo sapiens; Ebselen 25 μM; 10% FBS; 48 hours; mean±SE vs FBS+DMSO control; read-out: Percent Growth Inhibition. How it is done: (§1) Measurement of Proliferation in Cell Cultures. […] This assay empirically distinguishes between dead and living cells.
(§2) Cell Culture Treatments. The effect of antioxidant treatments on proliferation of malignant cell lines was studied in cultures stimulated with 10% FBS. Cell numbers were quantitated by the MTT assay 24-72 hours later. In some experiments, antioxidants were added immediately after cells were plated. In other experiments, cells were plated and allowed to grow for 24 hours before fresh media with antioxidants was added, and cell numbers were studied by the MTT assay 48 hours later.
(§3) Cells stimulated with 10% FBS were plated at a density of 50,000 cells per well. DMSO and antioxidants were added to cell wells at the indicated concentrations. […] Each value represents a mean of at least 4 experiments.
(In general: Tetrazolium assays rely on reduction of a dye to a coloured formazan, in cell work by metabolically active cells.)

Assay [2] deals with Adeno-squamous lung carcinoma NCI-H596 cells. As to the kind of experiment: MTT proliferation assay, NCI-H596 lung carcinoma. The conditions noted are these: Homo sapiens, NCI-H596; Ebselen 25 μM; 10% FBS; 48 hours; mean±SE vs FBS+DMSO control; read-out: Percent Growth Inhibition. How it is done:
as §1, §2, §3

The test system of assay [3] is LNCaP.FGC prostate adenocarcinoma cells. As to the kind of experiment: MTT proliferation assay, LNCaP.FGC prostate adenocarcinoma. The conditions noted are these: Homo sapiens; Ebselen 25 μM; 10% FBS; 48 hours; mean±SE vs FBS+DMSO control; read-out: Percent Growth Inhibition. How it is done:
as §1, §2, §3

Assay [4] concerns breast carcinoma MDA-MB-453 cells. Put plainly: MTT proliferation assay, MDA-MB-453 breast carcinoma. The note with it: Homo sapiens, MDA-MB-453; Ebselen 25 μM; 10% FBS; 72 hours; mean±SE vs FBS+DMSO control; read-out: Percent Growth Inhibition. The method, then:
as §1, §2, §3

The subject of assay [5] is M1619 melanoma cells. As to the kind of experiment: MTT proliferation assay, M1619 melanoma. The note with it: for Proliferation of M1619 melanoma cells (MTT, A540): 10% FBS, agents added at plating, 48 hours (ebselen 72 hours). How it is done: Measurement of Proliferation in Cell Cultures. Proliferation of cultured cells was quantitated using a previously reported calorimetric method based upon metabolic reduction of the soluble yellow tetrazolium dye 3-[4,5-dimethylthiazol]-2yl-2,5-diphenyl tetrazolium bromide (MTT) to its insoluble purple formazan by the action of mitochondrial succinyl dehydrogenase. […] This assay empirically distinguishes between dead and living cells. For proliferation studies, cells were seeded into 24-well uncoated plastic plates (Costar) at 15,000-50,000 cells per well and cultured with respective media and mitogens. After 24-96 hours, medium was removed, cells were washed twice with 1 ml of sterile Dulbecco's modified phosphate buffered saline without Ca^2+ or Mg^2+ (DPBS), the medium was replaced with 1 ml/well fresh medium containing 100 μg/ml MTT, and plates were incubated an additional hour. MTT-containing medium was removed, 0.5 ml dimethylsulfoxide (DMSO) was added to each well, and the absorbance of the solubilized purple formazan dye was measured at 540 nm. A total of 4-6 wells was studied at each treatment condition. Preliminary studies were performed with 50-200 μg/ml MTT incubated for 15 min to 3 hours to determine the optimum concentration and incubation time at which the rate of conversion was linear and proportional to the number of cells present.
as §2
A. M1619 melanoma cells stimulated with 10% fetal bovine serum (FBS) were plated at a density of 50,000 cells per well and antioxidants were added to wells at the indicated concentrations (mM or U/ml). After 48 hours, proliferation was quantitated by assessing the cell number-dependent reduction of the soluble yellow tetrazolium dye 3-[4,5-dimethylthiazol]-2yl-2,5-diphenyl tetrazolium bromide (MTT) to its insoluble formazan, measured as the absorbance at 540 nm (A540). The antioxidants tested included no antioxidant (control, i.e., FBS alone), 1000 U/ml SOD, 20 mM NAC, 500 U/ml, 1000 U/ml, and 3000 U/ml of catalase, and boiled […] catalase.
B. In a separate experiment, 2 μl/well of DMSO (served as control), 5 μM, 10 μM, and 25 μM Ebselen were tested on M1619 melanoma cells as described above, except that the cells were cultured for 72 hours before proliferation was measured.
C. 3000 U/ml Catalase, 2 μl/well DMSO, 25 μM Ebselen, and 50 μM Ebselen were tested as described above except that the compounds were added 24 hours after M1619 cells were plated. After the addition of antioxidants, the cells were incubated for an additional 48 hours and cell proliferation was quantitated. […]

The subject of assay [6] is NF-κB. Put plainly: EMSA of constitutive nuclear NF-κB DNA binding, M1619. The conditions noted are these: 24 hours, catalase 3,000 U/ml, NAC 20 mM, Ebselen 25 μM, dicumarol 250 μM. An excerpt:
Electrophoretic Mobility Shift Assays (EMSAs). […] J. Respir.
For orientation: In EMSA bound probe runs differently from free probe, usually more slowly.

Assay [7] relates to M1619 cells. As to the kind of experiment: Ferricytochrome c reduction (O2− generation) by M1619 cells. The conditions noted are these: 160 μM ferricytochrome c; capsaicin 100 μM; dicumarol 250 μM pre-treatment 60 min; other inhibitors as. The method, then: Measurement of Reactive Oxygen Species. Superoxide (O2^−) generation was measured by the technique of superoxide dismutase (SOD) inhibitable reduction of ferricytochrome c, employing a modification allowing absorbance reading with an automatic enzyme immunoassay reader. See Friovich, I. in Handbook of Methods for Oxygen Radical Research (Greenwald, R. A., ed.), pp 121-122, CRC Press, Boca Raton, Fla., 1985; Pick, E. et al. J. Immunol. Methods 46:211-226 (1981). Confluent cells grown on 24-well plates were washed with DPBS, and incubated in 5% CO2/air at 37° C. with 160 μM ferricytochrome c in total volume of 550 μl of sodium bicarbonate-containing Krebs-Heinseleit buffer, or Hanks Balanced Salt Solution (HBSS), with and without copper-zinc SOD (1,000 units/ml). See Nozik-Grayck, et al., Am J. Physiol. 273 (17):L296-L304 (1997). The absorbance of each well was measured at 550 nm initially and 3-24 hours later using an ELx800 UV automated microplate reader (Biotek Instruments, Highland Park, Vt.). Monolayers were then washed with DPBS, and cell protein was measured using the BCA protein assay (Pierce). O2^− generation, normalized to cell protein, was computed from the Beer-Lambert relationship, as the quotient of SOD-inhibitable increase absorbance over time divided by the difference between the molar extinction coefficients for ferricytochrome c and ferrocytochrome c (ΔEM=2.1×10^4 M^−1 cm^−1). See Bashford, in Spectrophotometry & Spectrofluorimetry. A Practical Approach (Harris, D. A., and Bashford, C. L., eds) pp. 1-22, IRL Press, Washington, D.C., 1987; Friovich, I. in Handbook of Methods for Oxygen Radical Research (Greenwald, R. A., ed) pp 121-122, CRC Press, Boca Raton, Fla., 1985. […].
A. Capsaicin inhibits ferricytochrome c reduction. M1619 cells grown on 24-well plates were washed with DPBS, and incubated in 5% CO2/air at 37° C. with 160 μM ferricytochrome c in total volume of 550 μl of HBSS with or without the quinone analog capsaicin (100 μM final concentration) added in 5 μl/ml of ethanol. The absorbance of each well was measured at 550 nm initially and 3 hours later using an ELx800 UV automated microplate reader (Biotek Instruments, Highland Park, Vt.). The results are illustrated in FIG. 8A.
. […]. The results are illustrated in FIG. 9A.

The test system of assay [8] is p65 component of NF-κB. Put plainly: Immunohistochemical localization of p65 in M1619 cells. The note with it: 24 hours, catalase 3,000 U/ml, apocynin 150 μg/ml, dicumarol 250 μM. The method, then:
The effect of antioxidants on nuclear activation of NF-κB was studied by incubating near confluent (70%) cell cultures with antioxidant treatments for 1-48 hours. Nuclear protein was harvested, and EMSAs were performed using DNA consensus binding sequences, or nuclear translocation of the p65 component of NF-κB was studied by immunoperoxidase staining, as outlined below.
Immunohistochemical Localization of NF-κB. Cells grown on sterile coverslips and treated with catalase 3,000 U/ml, apocynin 150 μg/ml, or DPBS or DMSO vehicles for 24 h were fixed for 20 min on ice with 4% paraformaldehyde in DPBS with protease inhibitors, PI [Sigma protease inhibitor cocktail, 10 μl/ml, containing 4-(2-aminoethyl)benzensulfonyl fluoride (AEBSF), pepstatin A, trans-epoxysuccinyl-L-leucylamindo-(guanidino)butane (E-64), bestatin, leupeptin and aprotinin]. Cells were permeabilized by treating for 2 min with 0.1% NP-40 in DPBS/PI, washed once with cold DPBS and fixed as before for 10 min. Coverslips were incubated in 3% hydrogen peroxide for 30 min to suppress any remaining peroxidase, and washed three times in cold DPBS. The permeabilized and fixed cells were blocked for 2 hours with 2% BSA in DPBS on ice and incubated overnight at 4° C. with 1 μg/ml of anti-p65 antibody (Santa Cruz) diluted in 0.1% BSA/DPBS. Unbound anti-p65 was washed away with 2% BSA/DPBS and bound antibody was stained by incubation with biotinylated goat anti-rabbit immunoglobulin diluted 1:50 in 0.1% BSA/DPBS for 45 min on ice. Excess secondary antibody was washed away by 3 washes with 2% BSA/DPBS on ice. After washing, the cells were incubated with a streptavidin-biotin-peroxidase complex at room temperature for 1 hr, washed again, and incubated in 0.03% wt/vol 3-3′diaminobenzidine with 0.003% vol/vol hydrogen peroxide until a brown reaction product could be seen. Cells were then counterstained with eosin and mounted on glass slides before viewing under light microscopy. […]

Usually inhibition stands for how much of the control response was suppressed.

On to `O=c1c2ccccc2[se]n1-c1ccccc1` [Ebselen, 2-phenyl-1,2-benzisoselenazol-3(2H)-one], for which the inhibition at 25 µM in assay [1] came to 94 ± 2%; in assay [2], 57 ± 2%; in assay [3], 100%; in assay [4] it was 69 ± 4%. For the same compound, the “Proliferation of M1619 melanoma cells (MTT, A540)” value (from here on “Proliferation … (MTT, A540)”) in assay [5] is reported as “dramatically reduced”. Moreover, the “Proliferation of M1619 melanoma cells, agents added 24 hours after plating” value in assay [5] (catalase 3000 U/ml, Ebselen 25 and 50 μM, further 48 hours) was “antiproliferative”. The “constitutive NF-κB DNA binding activity in nuclear protein” value in assay [6] was “substantially reduced”.
Take `CC(=O)N[C@@H](CS)C(=O)O` [N-acetylcysteine]: the “Proliferation … (MTT, A540)” value in assay [5] was “reduced proliferation”.
As to `Oc1ncnc2[nH]ncc12` [allopurinol], the “Proliferation … (MTT, A540)” value in assay [5] was “Neither cellular reduction of ferricytochrome c nor proliferation were reduced”. Further, the “ferricytochrome c reduction by M1619 cells” value (from here on “ferricytochrome c reduction”) in assay [7] was “Neither cellular reduction of ferricytochrome c nor proliferation were reduced”.
Take `COc1cc(C(C)=O)ccc1O` [apocynin, 4′-hydroxy-3′-methoxy-acetophenone]: in assay [5], the “Proliferation … (MTT, A540)” value is recorded as “significantly reduced proliferation”. Further, in assay [8], the “anti-p65 staining in nuclei (nuclear translocation of NF-κB)” value is reported as “little staining in nuclei”.
For the compound `COc1cc(CNC(=O)CCCC/C=C/C(C)C)ccc1O` [capsaicin, 8-methyl-N-vanillyl-6-noneamide], the “Proliferation … (MTT, A540)” value in assay [5] is given as “significantly reduced proliferation”. The “ferricytochrome c reduction” value in assay [7] is listed as “significantly decreased”.
On the same counts, the results for `CN/C(=N/CCSCc1nc[nH]c1C)NC#N` [cimetidine] are “Neither cellular reduction of ferricytochrome c nor proliferation were reduced” and “Neither cellular reduction of ferricytochrome c nor proliferation were reduced”.
Consider `c1ccc2c(c1)[I+]c1ccccc1-2` [diphenylene iodonium chloride], for which, in assay [5], the “Proliferation … (MTT, A540)” value was “significantly reduced proliferation”.
With `COc1ccc2c(c1)c(CC(=O)O)c(C)n2C(=O)c1ccc(Cl)cc1` [indomethacin], the “Proliferation … (MTT, A540)” value in assay [5] is “Neither cellular reduction of ferricytochrome c nor proliferation were reduced”. The “ferricytochrome c reduction” value in assay [7] is given as “Neither cellular reduction of ferricytochrome c nor proliferation were reduced”.
Take `C=C(C)[C@H]1Cc2c(ccc3c2O[C@@H]2COc4cc(OC)c(OC)cc4[C@@H]2C3=O)O1` [retenone]: in assay [5], the “Proliferation … (MTT, A540)” value is reported as “Neither cellular reduction of ferricytochrome c nor proliferation were reduced”. The “ferricytochrome c reduction” value in assay [7] is on record as “Neither cellular reduction of ferricytochrome c nor proliferation were reduced”.
For the compound `N=C(NCCC[C@H](N)C(=O)O)N[N+](=O)[O-]` [ω-nitro-L-arginine, Nω-nitro-L-arginine], in assay [5], the “Proliferation … (MTT, A540)” value is on record as “Neither cellular reduction of ferricytochrome c nor proliferation were reduced”. The “ferricytochrome c reduction” value in assay [7] is given as “Neither cellular reduction of ferricytochrome c nor proliferation were reduced”.
